The GI50 is the concentration giving 50% growth inhibition. Broadly, the TGI is the concentration giving total growth inhibition. Higher therefore signals less potent growth arrest.

Here are results for 12 molecules from PubChem BioAssay (NCI).

Several values for one entry are separate records, joined by “and”; a condition that tells them apart may be missing. Identical values can stand only once.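 Each compound was tested at five concentrations against cells in 96-well plates for 48 hours. The concentration for 50% growth inhibition is given as GI50. TGI denotes the concentration required for complete inhibition of growth.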

The subject of one test is MDA-MB-435. The test can be described thus: DTP human tumour cell line panel, 48 h.
`OCC1OC(n2cnc3c(N/N=C\c4ccccn4)ncnc32)C(O)C1O` (centres undefined): the GI50 is 0.43 µM and the TGI was greater than 100 µM.

As for `COc1cc2c(cc1OCCCn1c(-c3ccccn3)nc3ccccc31)N=C[C@@H]1CCCN1C2=O`, the GI50 is 1.42 µM and the TGI turned out to be 2.91 µM.

Regarding `c1cnn2ncc(-c3ccnc(NCCCN4CCOCC4)n3)c2c1`, the GI50 was 7.56 µM and the TGI was greater than 25 µM.

As for `O=C(Nc1ccc(OCc2nnc(-c3ccc(Cl)cc3)o2)c(F)c1)Nc1ccc(Cl)c(C(F)(F)F)c1`, the GI50 was 2.62 µM and the TGI is 11.6 µM.

On to `O=C1NC(=O)C(N2C(=O)c3ccccc3C2=O)CC1O` (centres undefined), for which the GI50 is greater than 100 µM and the TGI is greater than 100 µM.

With `COc1ccc2c(c1)N(CCO)C1=C(C(=O)OC1)C2c1cccc(F)c1` (centres undefined), the GI50 is 0.112 µM and the TGI stood at 0.348 µM.

Take `C=CC(=O)Nc1cccc(Oc2nc(Nc3ccc(N4CCN(C)CC4)cc3)nc3ccsc23)c1`: the GI50 is 1.71 µM and 1.93 µM; the TGI is 3.69 µM and 4.12 µM.

`OCc1ccc(N2CCCC2c2ccccc2)cc1Cl` (centres undefined): the GI50 was 1.74 µM and the TGI came out at 4.18 µM.

In turn, `COC1C=COC2(C)Oc3c(C)c(O)c4c(c3C2=O)/C(=N/C2CCC(O)OC2C)C=C(NC(=O)/C(C)=C\C(=O)C2CC2C(O)C(C)C(O)C(C)C(OC(C)=O)C1C)C4=O` (centres undefined) showed a TGI of 3.64 µM.

For the molecule `CC(=O)/C=C/c1cn(C(=O)OC(C)(C)C)c2ccc(Br)cc12`, the GI50 is 9.97 µM and the TGI was found to be 25.9 µM.

As to `CCOc1ccccc1C(=O)N1CCN(c2cc(Cl)cc(Cl)c2)CC1`, the GI50 was 0.0157 µM and the TGI was 0.0527 µM.

Consider `NC(CSC1c2ccccc2-c2ccccc21)C(=O)O` (centres undefined), for which the TGI was greater than 100 µM.

A further test deals with OVCAR-3 ovarian. The test is described as follows: DTP human tumour cell line panel, 48 h.
Take `OCC1OC(n2cnc3c(N/N=C\c4ccccn4)ncnc32)C(O)C1O` (centres undefined): the GI50 is 0.319 µM and the concentration for total growth inhibition (TGI) amounted to 3.04 µM.

For the molecule `COc1cc2c(cc1OCCCn1c(-c3ccccn3)nc3ccccc31)N=C[C@@H]1CCCN1C2=O`, the GI50 was 2.18 µM and the total growth inhibition concentration (TGI) was 5.11 µM.

For the molecule `c1cnn2ncc(-c3ccnc(NCCCN4CCOCC4)n3)c2c1`, the GI50 was 6.16 µM and the TGI is greater than 21.9 µM.

Turning to `O=C(Nc1ccc(OCc2nnc(-c3ccc(Cl)cc3)o2)c(F)c1)Nc1ccc(Cl)c(C(F)(F)F)c1`, the GI50 is 1.7 µM and the TGI is 5.01 µM.

Turning to `O=C1NC(=O)C(N2C(=O)c3ccccc3C2=O)CC1O` (centres undefined), the GI50 was greater than 100 µM and the TGI was greater than 100 µM.

Take `COc1ccc2c(c1)N(CCO)C1=C(C(=O)OC1)C2c1cccc(F)c1` (centres undefined): the GI50 is 0.188 µM.

For the molecule `C=CC(=O)Nc1cccc(Oc2nc(Nc3ccc(N4CCN(C)CC4)cc3)nc3ccsc23)c1`, the GI50 was 2.11 µM and 1.88 µM; the TGI was 9.29 µM and 4.79 µM.

Regarding `OCc1ccc(N2CCCC2c2ccccc2)cc1Cl` (centres undefined), the GI50 was 2.3 µM and the TGI amounted to 10.1 µM.

The molecule `COC1C=COC2(C)Oc3c(C)c(O)c4c(c3C2=O)/C(=N/C2CCC(O)OC2C)C=C(NC(=O)/C(C)=C\C(=O)C2CC2C(O)C(C)C(O)C(C)C(OC(C)=O)C1C)C4=O` (centres undefined) returned a TGI of 5.21 µM. That is a single-digit micromolar value.

As for `CC(=O)/C=C/c1cn(C(=O)OC(C)(C)C)c2ccc(Br)cc12`, the GI50 was 13 µM and the TGI stood at 28.3 µM.

As to `CCOc1ccccc1C(=O)N1CCN(c2cc(Cl)cc(Cl)c2)CC1`, the GI50 is 0.0391 µM and the TGI turned out to be 12.4 µM.

Turning to `NC(CSC1c2ccccc2-c2ccccc21)C(=O)O` (centres undefined), the TGI was greater than 100 µM.

Another test relates to HL-60(TB) leukemia. The test can be described thus: DTP human tumour cell line panel, 48 h.
Consider `OCC1OC(n2cnc3c(N/N=C\c4ccccn4)ncnc32)C(O)C1O` (centres undefined), for which the GI50 was 0.0247 µM and the TGI worked out at 0.204 µM.

For the molecule `COc1cc2c(cc1OCCCn1c(-c3ccccn3)nc3ccccc31)N=C[C@@H]1CCCN1C2=O`, the GI50 is 4.45 µM and the TGI is greater than 24.6 µM.

In the case of `c1cnn2ncc(-c3ccnc(NCCCN4CCOCC4)n3)c2c1`, the GI50 was 6.08 µM and the TGI was found to be 17.7 µM.

For the molecule `O=C(Nc1ccc(OCc2nnc(-c3ccc(Cl)cc3)o2)c(F)c1)Nc1ccc(Cl)c(C(F)(F)F)c1`, the GI50 is 2.83 µM and the TGI was found to be 6.78 µM.

In the case of `O=C1NC(=O)C(N2C(=O)c3ccccc3C2=O)CC1O` (centres undefined), the GI50 is greater than 100 µM and the TGI was greater than 100 µM.

In the case of `COc1ccc2c(c1)N(CCO)C1=C(C(=O)OC1)C2c1cccc(F)c1` (centres undefined), the GI50 is 0.161 µM and the TGI worked out at 0.781 µM.

For `C=CC(=O)Nc1cccc(Oc2nc(Nc3ccc(N4CCN(C)CC4)cc3)nc3ccsc23)c1`, the GI50 is 1.43 µM and the TGI was 4.09 µM.

Take `OCc1ccc(N2CCCC2c2ccccc2)cc1Cl` (centres undefined): the GI50 is 3.07 µM and the TGI was 11.1 µM.

For `COC1C=COC2(C)Oc3c(C)c(O)c4c(c3C2=O)/C(=N/C2CCC(O)OC2C)C=C(NC(=O)/C(C)=C\C(=O)C2CC2C(O)C(C)C(O)C(C)C(OC(C)=O)C1C)C4=O` (centres undefined), the concentration for total growth inhibition (TGI) was found to be 6.32 µM.

For `CC(=O)/C=C/c1cn(C(=O)OC(C)(C)C)c2ccc(Br)cc12`, the GI50 was 29.6 µM and the TGI is greater than 100 µM.

On to `CCOc1ccccc1C(=O)N1CCN(c2cc(Cl)cc(Cl)c2)CC1`, for which the GI50 is 0.0254 µM and the TGI was found to be 0.078 µM.

`NC(CSC1c2ccccc2-c2ccccc21)C(=O)O` (centres undefined) registered a TGI greater than 100 µM.

Another test concerns SR leukemia. The test can be described thus: DTP human tumour cell line panel, 48 h.
For the molecule `OCC1OC(n2cnc3c(N/N=C\c4ccccn4)ncnc32)C(O)C1O` (centres undefined), the concentration for 50% growth inhibition (GI50) is 0.0387 µM and the concentration for total growth inhibition (TGI) was greater than 87.7 µM.

As to `COc1cc2c(cc1OCCCn1c(-c3ccccn3)nc3ccccc31)N=C[C@@H]1CCCN1C2=O`, the GI50 was 2.82 µM and the TGI is greater than 20.1 µM.

Take `c1cnn2ncc(-c3ccnc(NCCCN4CCOCC4)n3)c2c1`: the GI50 is 5.21 µM and the TGI was greater than 21.3 µM.

Regarding `O=C(Nc1ccc(OCc2nnc(-c3ccc(Cl)cc3)o2)c(F)c1)Nc1ccc(Cl)c(C(F)(F)F)c1`, the GI50 is 1.85 µM and the TGI was 4.9 µM.

Take `O=C1NC(=O)C(N2C(=O)c3ccccc3C2=O)CC1O` (centres undefined): the GI50 was greater than 100 µM and the TGI is greater than 100 µM.

In the case of `COc1ccc2c(c1)N(CCO)C1=C(C(=O)OC1)C2c1cccc(F)c1` (centres undefined), the GI50 is 0.195 µM and the TGI was greater than 50 µM.

As to `C=CC(=O)Nc1cccc(Oc2nc(Nc3ccc(N4CCN(C)CC4)cc3)nc3ccsc23)c1`, the GI50 is 2.23 µM and the TGI worked out at 5.73 µM.

With `OCc1ccc(N2CCCC2c2ccccc2)cc1Cl` (centres undefined), the GI50 is 3.13 µM and the TGI came to 17.2 µM.

For `COC1C=COC2(C)Oc3c(C)c(O)c4c(c3C2=O)/C(=N/C2CCC(O)OC2C)C=C(NC(=O)/C(C)=C\C(=O)C2CC2C(O)C(C)C(O)C(C)C(OC(C)=O)C1C)C4=O` (centres undefined), the TGI worked out at 5.06 µM.

In the case of `CC(=O)/C=C/c1cn(C(=O)OC(C)(C)C)c2ccc(Br)cc12`, the GI50 is 71.6 µM and the TGI is greater than 100 µM.

Regarding `CCOc1ccccc1C(=O)N1CCN(c2cc(Cl)cc(Cl)c2)CC1`, the GI50 is 0.0335 µM and the TGI was determined as 22 µM.

Consider `NC(CSC1c2ccccc2-c2ccccc21)C(=O)O` (centres undefined), for which the TGI is greater than 100 µM.

Another test has as its system PC-3 prostate. The test is described as follows: DTP human tumour cell line panel, 48 h.
On to `OCC1OC(n2cnc3c(N/N=C\c4ccccn4)ncnc32)C(O)C1O` (centres undefined), for which the GI50 is 0.361 µM and the TGI is greater than 33.6 µM.

As to `COc1cc2c(cc1OCCCn1c(-c3ccccn3)nc3ccccc31)N=C[C@@H]1CCCN1C2=O`, the GI50 was 1.44 µM and the TGI is greater than 30.6 µM.

With `c1cnn2ncc(-c3ccnc(NCCCN4CCOCC4)n3)c2c1`, the GI50 was 8.71 µM and the TGI is greater than 25 µM.

For the molecule `O=C(Nc1ccc(OCc2nnc(-c3ccc(Cl)cc3)o2)c(F)c1)Nc1ccc(Cl)c(C(F)(F)F)c1`, the GI50 is 1.84 µM and the TGI was 7.87 µM.

As for `O=C1NC(=O)C(N2C(=O)c3ccccc3C2=O)CC1O` (centres undefined), the GI50 is greater than 100 µM and the TGI was greater than 100 µM.

Regarding `COc1ccc2c(c1)N(CCO)C1=C(C(=O)OC1)C2c1cccc(F)c1` (centres undefined), the GI50 was 0.232 µM and the TGI is greater than 50 µM.

With `C=CC(=O)Nc1cccc(Oc2nc(Nc3ccc(N4CCN(C)CC4)cc3)nc3ccsc23)c1`, the GI50 was 2.36 µM and 2.87 µM; the TGI was 8.25 µM and 7.33 µM.

Consider `OCc1ccc(N2CCCC2c2ccccc2)cc1Cl` (centres undefined), for which the GI50 was 8.41 µM and the TGI worked out at 29 µM.

The molecule `COC1C=COC2(C)Oc3c(C)c(O)c4c(c3C2=O)/C(=N/C2CCC(O)OC2C)C=C(NC(=O)/C(C)=C\C(=O)C2CC2C(O)C(C)C(O)C(C)C(OC(C)=O)C1C)C4=O` (centres undefined) came in with a TGI of 6.56 µM.

With `CC(=O)/C=C/c1cn(C(=O)OC(C)(C)C)c2ccc(Br)cc12`, the GI50 is 18.2 µM and the TGI was greater than 79.2 µM.

With `CCOc1ccccc1C(=O)N1CCN(c2cc(Cl)cc(Cl)c2)CC1`, the GI50 was 0.0346 µM and the TGI stood at 12.6 µM.

`NC(CSC1c2ccccc2-c2ccccc21)C(=O)O` (centres undefined): the TGI is greater than 100 µM.
